Columns and labels:
M. luteus ATCC 9341 = assay: In vitro antibacterial activity, agar dilution MIC; format: cell-based; conditions: M. luteus ATCC 9341; BHI agar dilution, 20-24 hours
Protocol: (§1) Each plate was inoculated with 1:100 (or 1:10 for slow-growing strains, primarily Micrococcus and Streptococcus) dilutions of up to 32 different microorganisms, using a Steers replicator block calibrated to deliver approximately 10^4 colony forming units (CFUs). The inoculated plates were incubated at from about 35° C. to about 37° C. for approximately 20-24 hours. In addition, a control plate using BHI agar containing no test compound was prepared and incubated at the beginning and at the end of each test. The quinolone antibacterial ciprofloxacin was used as a control ("Cntl").
(§2) The MIC was defined as the lowest concentration of test compound yielding no growth (a slight haze or sparsely isolated colonies at the inoculum spot) as compared to the growth control containing no test compound.

[1] = system: Entero. faecium ATCC 8043; assay: In vitro antibacterial activity, agar dilution MIC; format: cell-based; conditions: Entero. faecium ATCC 8043; BHI agar dilution, 20-24 hours
Protocol: as §1, §2

[2] = system: Acinetob. calcoaceticus CMX 669; assay: In vitro antibacterial activity, agar dilution MIC; format: cell-based; conditions: Acinetob. calcoaceticus CMX 669; BHI agar dilution, 20-24 hours
Protocol: as §1, §2

Strep. bovis A5169 = assay: In vitro antibacterial activity, agar dilution MIC; format: cell-based; conditions: Strep. bovis A5169; BHI agar dilution, 20-24 hours
Protocol: as §1, §2

Staph. aureus ATCC 6538P = assay: In vitro antibacterial activity, agar dilution MIC; format: cell-based; conditions: Staph. aureus ATCC 6538P; BHI agar dilution, 20-24 hours
Protocol: as §1, §2

Staph. epidermidis 3519 = assay: In vitro antibacterial activity, agar dilution MIC; format: cell-based; conditions: Staph. epidermidis 3519; BHI agar dilution, 20-24 hours
Protocol: as §1, §2

P. aeruginosa 5263 = conditions: BHI agar dilution, 20-24 hours
Protocol: as §1, §2

[3] = system: Strep. agalactiae CMX 508; assay: In vitro antibacterial activity, agar dilution MIC; format: cell-based; conditions: Strep. agalactiae CMX 508; BHI agar dilution, 20-24 hours
Protocol: as §1, §2

[4] = system: Strep. pyogenes 2548 INDUC; assay: microbe, parasite or virus in culture; format: cell-based; conditions: Strep. pyogenes 2548 INDUC; BHI agar dilution, 20-24 hours
Protocol: as §1, §2

Staph. aureus 5278 = assay: In vitro antibacterial activity, agar dilution MIC; format: cell-based; conditions: Staph. aureus 5278; BHI agar dilution, 20-24 hours
Protocol: as §1, §2

[5] = system: Nocardia asteroides ATCC 9970; assay: In vitro antibacterial activity, agar dilution MIC; format: cell-based; conditions: Nocardia asteroides ATCC 9970; BHI agar dilution, 20-24 hours
Protocol: as §1, §2

[6] = system: Providencia stuartii CMX 640; assay: In vitro antibacterial activity, agar dilution MIC; format: cell-based; conditions: Providencia stuartii CMX 640; BHI agar dilution, 20-24 hours
Protocol: as §1, §2

[7] = system: Strep. pyogenes 930 CONST; assay: In vitro antibacterial activity, agar dilution MIC; format: cell-based; conditions: Strep. pyogenes 930 CONST; BHI agar dilution, 20-24 hours
Protocol: as §1, §2

Staph. aureus A5177 = assay: In vitro antibacterial activity, agar dilution MIC; format: cell-based; conditions: Staph. aureus A5177; BHI agar dilution, 20-24 hours
Protocol: as §1, §2

Strep. pyogenes EES61 = assay: In vitro antibacterial activity, agar dilution MIC; format: cell-based; conditions: Strep. pyogenes EES61; BHI agar dilution, 20-24 hours
Protocol: as §1, §2

[8] = system: Enter. aerogenes ATCC 13048; assay: In vitro antibacterial activity, agar dilution MIC; format: cell-based; conditions: Enter. aerogenes ATCC 13048; BHI agar dilution, 20-24 hours
Protocol: as §1, §2

M. luteus ATCC 4698 = assay: In vitro antibacterial activity, agar dilution MIC; format: cell-based; conditions: M. luteus ATCC 4698; BHI agar dilution, 20-24 hours
Protocol: as §1, §2

[9] = system: Klebs. pneumoniae ATCC 8045; assay: In vitro antibacterial activity, agar dilution MIC; format: cell-based; conditions: Klebs. pneumoniae ATCC 8045; BHI agar dilution, 20-24 hours
Protocol: as §1, §2

P. aeruginosa A5007 = assay: In vitro antibacterial activity, agar dilution MIC; format: cell-based; conditions: P. aeruginosa A5007; BHI agar dilution, 20-24 hours
Protocol: as §1, §2

E. coli SS = assay: In vitro antibacterial activity, agar dilution MIC; format: cell-based; conditions: E. coli SS; BHI agar dilution, 20-24 hours
Protocol: as §1, §2

P. aeruginosa 2862 = assay: In vitro antibacterial activity, agar dilution MIC; format: cell-based; conditions: P. aeruginosa 2862; BHI agar dilution, 20-24 hours
Protocol: as §1, §2

Myco. smegmatis ATCC 114 = assay: In vitro antibacterial activity, agar dilution MIC; format: cell-based; conditions: Myco. smegmatis ATCC 114; BHI agar dilution, 20-24 hours
Protocol: as §1, §2

E. coli H560 = assay: In vitro antibacterial activity, agar dilution MIC; format: cell-based; conditions: E. coli H560; BHI agar dilution, 20-24 hours
Protocol: as §1, §2

Pseudomonas cepacia 296I = assay: In vitro antibacterial activity, agar dilution MIC; format: cell-based; conditions: Pseudomonas cepacia 296I; BHI agar dilution, 20-24 hours
Protocol: as §1, §2

Staph. aureus 642A = assay: In vitro antibacterial activity, agar dilution MIC; format: cell-based; conditions: Staph. aureus 642A; BHI agar dilution, 20-24 hours
Protocol: as §1, §2

P. aeruginosa K799/61 = assay: In vitro antibacterial activity, agar dilution MIC; format: cell-based; conditions: P. aeruginosa K799/61; BHI agar dilution, 20-24 hours
Protocol: as §1, §2

Staph. aureus CMX 553 = assay: In vitro antibacterial activity, agar dilution MIC; format: cell-based; conditions: Staph. aureus CMX 553; BHI agar dilution, 20-24 hours
Protocol: as §1, §2

P. aeruginosa K799/WT = assay: In vitro antibacterial activity, agar dilution MIC; format: cell-based; conditions: P. aeruginosa K799/WT; BHI agar dilution, 20-24 hours
Protocol: as §1, §2

E. coli DC-2 = assay: In vitro antibacterial activity, agar dilution MIC; format: cell-based; conditions: E. coli DC-2; BHI agar dilution, 20-24 hours
Protocol: as §1, §2

E. coli KNK 437 = assay: In vitro antibacterial activity, agar dilution MIC; format: cell-based; conditions: E. coli KNK 437; BHI agar dilution, 20-24 hours
Protocol: as §1, §2

Candida albicans CCH 442 = assay: In vitro antibacterial activity, agar dilution MIC; conditions: Candida albicans CCH 442; BHI agar dilution, 20-24 hours
Protocol: as §1, §2

P. aeruginosa BMH 10 = assay: In vitro antibacterial activity, agar dilution MIC; format: cell-based; conditions: P. aeruginosa BMH 10; BHI agar dilution, 20-24 hours
Protocol: as §1, §2

Escherichia coli Juhl = assay: In vitro antibacterial activity, agar dilution MIC; format: cell-based; conditions: Escherichia coli Juhl; BHI agar dilution, 20-24 hours
Protocol: as §1, §2

[10] = system: Staph. aureus 1775 Cipro. R.; assay: In vitro antibacterial activity, agar dilution MIC; format: cell-based; conditions: Staph. aureus 1775 Cipro. R.; BHI agar dilution, 20-24 hours
Protocol: as §1, §2

CC[C@@H]1CN(c2c(F)cn3c(=O)c(C(=O)O)cc(C4CC4)c3c2C)C[C@H]1N.Cl (single isomer, unassigned; diastereomer a) [Ex. 2, 8-(trans-3-amino-4-ethylpyrrolidin-1-yl)-1-cyclopropyl-7-fluoro-4H-9-methyl-4-oxo-quinolizine-3-carboxylic acid hydrochloride diastereomer A]
MIC (M. luteus ATCC 9341): 0.05 µg/mL
MIC [1]: 0.05 µg/mL
MIC [2]: 0.05 µg/mL
MIC (Strep. bovis A5169): 0.1 µg/mL
MIC (Staph. aureus ATCC 6538P): 0.02 µg/mL
MIC (Staph. epidermidis 3519): 0.05 µg/mL
MIC (P. aeruginosa 5263): 3.1 µg/mL
MIC [3]: 0.02 µg/mL
MIC [4]: 0.05 µg/mL
MIC (Staph. aureus 5278): 0.05 µg/mL
MIC [5]: 0.78 µg/mL
MIC [6]: 0.39 µg/mL
MIC [7]: 0.05 µg/mL
MIC (Staph. aureus A5177): 0.02 µg/mL
MIC (Strep. pyogenes EES61): 0.02 µg/mL
MIC [8]: 0.1 µg/mL
MIC (M. luteus ATCC 4698): 0.05 µg/mL
MIC [9]: 0.05 µg/mL
MIC (P. aeruginosa A5007): 0.39 µg/mL
MIC (E. coli SS): 0.001 µg/mL
MIC (P. aeruginosa 2862): 6.2 µg/mL
MIC (Myco. smegmatis ATCC 114): 0.02 µg/mL
MIC (E. coli H560): 0.01 µg/mL
MIC (Pseudomonas cepacia 296I): 1.56 µg/mL
MIC (Staph. aureus 642A): 0.02 µg/mL
MIC (P. aeruginosa K799/61): 0.1 µg/mL
MIC (Staph. aureus CMX 553): 0.02 µg/mL
MIC (P. aeruginosa K799/WT): 0.78 µg/mL
MIC (E. coli DC-2): 0.1 µg/mL
MIC (E. coli KNK 437): 0.1 µg/mL
MIC (Candida albicans CCH 442): > 100 µg/mL
MIC (P. aeruginosa BMH 10): 0.2 µg/mL
MIC (Escherichia coli Juhl): 0.01 µg/mL
MIC [10]: 0.78 µg/mL
